According to publication PMC6345968, “Structural basis for species-selective targeting of Hsp90 in a pathogenic fungus” (Nature Communications, 2019):
pIC50, pKi: −log10 of the molar value. Values joined by “and” are separate entries in the source; they are usually repeats but may differ in a detail not shown here. Equal entries are not always repeated.

Legend:
human Hsp90 NBD = human Hsp90 NBD (Homo sapiens, UniProt P08238); experiment: biochemical
Raw264.7 macrophages = experiment: Phagocytosis of GFP C. albicans by macrophages, flow cytometry; format: cell-based, mouse; details: 2 h pre-treatment
Description: Compromise of host immune function and other target-related toxicities preclude the use of non-species-selective Hsp90 inhibitors in the treatment of fungal infections. Host defense against invasive infection relies heavily on the ingestion and destruction of C. albicans by innate immune cells, such as macrophages. […] After an additional two hours, phagocytosis of the fluorescently labeled fungi was measured by flow cytometry. […] This Hsp90-dependent morphogenetic program has an important role in the organism’s virulence and interactions with host immune effectors such as macrophages.
The ingestion of GFP-marked C. albicans CaCi-2 (CaLC867, Table S4) by mouse macrophages was monitored using flow cytometry. Raw264.7 macrophage cultures were pre-treated with various concentrations of Hsp90 inhibitors for 2 h at 37 °C and then infected with fungus at a multiplicity of infection of ~2 for an additional 2 h. Wells were harvested by trypsinization and resultant cell suspensions incubated with Guava ViaCount reagent per manufacturer’s recommendation (Millipore Sigma, Cat #4000-0040). Red fluorescent signal was used to identify macrophages while green fluorescent signal identified the fungus. Dual positive (red and green) events with appropriate forward- and side-scatter parameters were quantitated as representative of ingestion of fungus by a macrophage. […]

Sequence of human Hsp90 NBD (P08238 1-223): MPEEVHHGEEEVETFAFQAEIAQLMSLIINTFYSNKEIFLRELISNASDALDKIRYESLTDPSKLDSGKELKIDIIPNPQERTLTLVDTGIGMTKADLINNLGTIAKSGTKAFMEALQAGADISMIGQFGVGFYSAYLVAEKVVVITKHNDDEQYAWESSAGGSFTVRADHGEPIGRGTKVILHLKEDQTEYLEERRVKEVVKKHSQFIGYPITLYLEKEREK

COc1ccc(CON=C2C=CC=CC3OC3CC(C)OC(=O)c3c(O)cc(O)cc3C2)cc1 (stereo not drawn) [CMLD013075]
heat-shock reporter activation (293T reporter cells): activation required much higher concentrations
pIC50 (human Hsp90 NBD; I50, single experiments Expt 1-3): 5.78 and 5.79 and 5.90
pIC50 (human Hsp90 NBD; IC50 (Equation 16), corrected I50, single experiments, unit inferred): 5.78 and 5.79 and 5.91
pKi (human Hsp90 NBD; Inhibitor Ki, single experiments Expt 1-3): 6.62 and 6.63 and 6.74
pKi (human Hsp90 NBD; Ki, purified NBD, Cy3-GdA probe, mean (± SEM) of 3 experiments): 6.66
effect on engulfment of C. albicans (Raw264.7 macrophages): Neither compound impaired engulfment
